# Read-outs that look alike come from different tables or passages of the source.
# Biological target: T1, F508delCFTR (Homo sapiens, UniProt P13569, DEL508-508)
# T1 construct: expressed in transfected cells; host or cells: CFBE41o- human lung-derived epithelial cells (CFBE4lo-F508delCFTR-HRP), doxycycline-inducible
# Assay: Cell Surface Expression-Horse Radish Peroxidase (CSE-HRP) Assay;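 as to Maximum % activity (with co-corrector): co-corrector and positive control are both the same reference corrector at 2 µM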;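 as to Maximum % activity (without co-corrector): percent of the 2 µM on-plate positive control corrector response above DMSO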
# Format: cell-based
# Settings: for Maximum % activity (with co-corrector) / Emax: maximum at any tested concentration, normalized to on-plate positive control; for Emax: read-out: Maximum % activity (without co-corrector)
# [1] = CSE-HRP, test compound without co-corrector, read-out: EC50 (without co-corrector)
# [2] = CSE-HRP, with co-corrector (2 μM of 3-[(2R,4R)-4-({[1-(2,2-difluoro-1,3-benzodioxol-5-yl)cyclopropyl]carbonyl}amino)-7-methoxy-3,4-dihydro-2H-chromen-2-yl]benzoic acid), read-out: EC50 (with co-corrector)
# [3] = CSE-HRP, with co-corrector (2 μM)
# [4] = test compound without co-corrector, read-out: EC50 (without co-corrector)
# [5] = with co-corrector (2 μM of 3-[(2R,4R)-4-({[1-(2,2-difluoro-1,3-benzodioxol-5-yl)cyclopropyl]carbonyl}amino)-7-methoxy-3,4-dihydro-2H-chromen-2-yl]benzoic acid), read-out: EC50 (with co-corrector)
# [6] = test compound without co-corrector
# [7] = with co-corrector (2 μM of 3-[(2R,4R)-4-({[1-(2,2-difluoro-1,3-benzodioxol-5-yl)cyclopropyl]carbonyl}amino)-7-methoxy-3,4-dihydro-2H-chromen-2-yl]benzoic acid)
# T1 sequence (P13569 with tags, fused parts or gaps DEL508-508): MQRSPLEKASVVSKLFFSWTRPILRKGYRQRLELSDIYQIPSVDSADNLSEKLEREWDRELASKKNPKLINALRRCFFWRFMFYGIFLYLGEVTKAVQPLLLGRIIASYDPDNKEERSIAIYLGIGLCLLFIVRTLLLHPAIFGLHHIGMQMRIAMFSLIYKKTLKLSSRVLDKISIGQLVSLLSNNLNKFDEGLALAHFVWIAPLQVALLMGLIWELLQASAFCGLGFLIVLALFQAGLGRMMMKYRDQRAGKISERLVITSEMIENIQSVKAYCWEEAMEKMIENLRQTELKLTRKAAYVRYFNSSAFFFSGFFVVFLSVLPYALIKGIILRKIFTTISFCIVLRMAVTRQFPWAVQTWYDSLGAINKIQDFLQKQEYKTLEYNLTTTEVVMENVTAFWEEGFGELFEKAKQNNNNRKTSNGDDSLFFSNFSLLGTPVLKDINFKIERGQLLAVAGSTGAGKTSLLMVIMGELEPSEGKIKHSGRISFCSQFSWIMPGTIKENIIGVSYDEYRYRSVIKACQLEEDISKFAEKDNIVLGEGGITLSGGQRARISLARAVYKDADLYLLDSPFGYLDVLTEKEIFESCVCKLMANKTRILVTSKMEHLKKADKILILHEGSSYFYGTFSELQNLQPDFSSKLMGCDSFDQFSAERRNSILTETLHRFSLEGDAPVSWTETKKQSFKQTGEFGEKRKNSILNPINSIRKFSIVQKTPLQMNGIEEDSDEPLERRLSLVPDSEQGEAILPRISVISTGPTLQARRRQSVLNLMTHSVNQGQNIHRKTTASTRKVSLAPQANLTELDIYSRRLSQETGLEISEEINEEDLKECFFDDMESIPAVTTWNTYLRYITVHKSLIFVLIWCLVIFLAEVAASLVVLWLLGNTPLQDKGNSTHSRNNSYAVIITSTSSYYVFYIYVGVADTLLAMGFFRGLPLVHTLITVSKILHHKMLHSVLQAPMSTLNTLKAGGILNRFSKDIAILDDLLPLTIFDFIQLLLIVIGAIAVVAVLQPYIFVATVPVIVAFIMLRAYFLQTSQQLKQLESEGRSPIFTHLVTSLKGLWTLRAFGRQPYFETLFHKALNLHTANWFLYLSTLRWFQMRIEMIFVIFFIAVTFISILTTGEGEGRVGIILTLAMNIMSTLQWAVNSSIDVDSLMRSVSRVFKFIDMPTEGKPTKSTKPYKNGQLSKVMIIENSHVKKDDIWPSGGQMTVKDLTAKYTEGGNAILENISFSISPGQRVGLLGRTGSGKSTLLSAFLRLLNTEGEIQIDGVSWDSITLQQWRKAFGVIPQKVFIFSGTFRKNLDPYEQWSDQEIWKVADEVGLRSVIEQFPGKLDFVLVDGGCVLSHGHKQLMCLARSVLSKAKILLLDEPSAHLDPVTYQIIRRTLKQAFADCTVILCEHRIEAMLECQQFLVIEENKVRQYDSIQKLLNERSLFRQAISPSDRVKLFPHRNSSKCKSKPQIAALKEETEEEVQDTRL
EC50 [1] [nM],EC50 [2] [nM],Maximum % activity (with co-corrector) [3],"Emax (CSE-HRP, without co-corrector) [%]",EC50 [4] [nM],EC50 [5] [nM],Maximum % activity (with co-corrector) (with co-corrector (2 μM)),Emax (without co-corrector) [%],Emax [6] [%],Maximum % activity (with co-corrector) [7],SMILES
1000 to 10000,1000 to 10000,+++ (≥350),100 to 200,,,,,,,CCOc1cc2c(cc1CN[C@H]1[C@H](C(C)(C)C)[C@@H](C(=O)O)N(C(=O)C3CCCCC3)[C@H]1c1ccccc1)CCC2 [II-129]
,,,,1000 to 10000,1000 to 10000,+++ (≥350),100 to 200,,,COc1nc(C2CCC2)ccc1CN[C@H]1[C@H](C(C)(C)C)[C@@H](C(=O)O)N(C(=O)C2CCCCC2)[C@H]1c1ccccc1 [Example I-242]
1000 to 10000,1000 to 10000,++ (≥150 and <350),< 100,,,,,,,COc1ccc(C(C)(C)C)cc1CN[C@H]1[C@H](C(C)(C)C)[C@@H](C(=O)O)N(C(=O)c2cc(C)nc(C)c2)[C@H]1c1ccccc1 [II-197]
1000 to 10000,1000 to 10000,+++ (≥350),> 200,,,,,,,COc1ccc(C(F)(F)F)cc1CN[C@@H]1[C@@H](C(C)(C)C)[C@H](C(=O)O)N(C(=O)C2CCCCO2)[C@@H]1c1ccccc1N(C)C (mixture of isomers) [II-20]
,,,,> 10000,1000 to 10000,,,< 100,++ (≥150 and <350),CC(C)(C)[C@@H]1[C@@H](NCc2cc(Cl)ncc2O)[C@@H](c2ccccc2)N(C(=O)C2CCCCC2)[C@H]1C(=O)O (racemic) [III-73]
,,,,1000 to 10000,1000 to 10000,,,> 200,+++ (≥350),COc1ncc(C(F)(F)F)cc1CN[C@H]1[C@H](C(C)(C)C)[C@@H](C(=O)O)N(C(=O)C2CCCCC2)[C@H]1c1ccccc1C(C)C [II-545]
,,,,1000 to 10000,< 1000,+++ (≥350),,> 200,,COc1ccc(C(C)(C)C)cc1CN[C@H]1[C@H](C(C)(C)C)[C@@H](C(=O)O)N(C(=O)OC(C)C)[C@H]1c1cccnc1OC(C)C [III-229]
,,,,1000 to 10000,< 1000,+++ (≥350),> 200,,,"COc1ccc(C(C)(C)C)cc1CN[C@H]1[C@H](C(C)(C)C)[C@@H](C(=O)O)N(C(=O)C2CCCCC2)[C@H]1c1cccnc1OC [Example 17, (2S,3S,4S,5S)-3-tert-butyl-4-{[(5-tert-butyl-2-methoxyphenyl)methyl]amino}-1-(cyclohexanecarbonyl)-5-(2-methoxypyridin-3-yl)pyrrolidine-2-carboxylic acid]"
,,,,1000 to 10000,< 1000,+++ (≥350),> 200,,,CCC(C)c1cnc(OC)c(CN[C@H]2[C@H](C(C)(C)C)[C@@H](C(=O)O)N(C(=O)C3CCCCC3)[C@H]2c2ccccc2)c1 (stereo partly shown) [Example I-70]
,,,,1000 to 10000,< 1000,+++ (≥350),100 to 200,,,COc1nc(C(C)(C)C)ccc1CN[C@H]1[C@H](C(C)(C)C)[C@@H](C(=O)O)N(C(=O)[C@@H]2CCCCO2)[C@H]1c1cccnc1N(C)C [Example I-235]
,,,,> 10000,1000 to 10000,,,< 100,++ (≥150 and <350),Cc1cc(C(F)(F)F)cc(N[C@@H]2[C@@H](C(C)(C)C)[C@H](C(=O)NS(C)(=O)=O)N(C(=O)C3CCCCC3)[C@@H]2c2ccccc2)n1 (racemic) [III-56]
,,,,1000 to 10000,< 1000,,,> 200,+++ (≥350),COc1ccc(C(C)(C)C)cc1CN[C@H]1[C@H](C(C)(C)C)[C@@H](C(=O)O)N(C(=O)[C@@H]2C[C@H]2c2ccccc2)[C@H]1c1ccccc1 (relative stereo) [II-339]
,,,,1000 to 10000,1000 to 10000,,,100 to 200,+++ (≥350),COc1ncc(C(F)(F)F)cc1CN[C@H]1[C@H](C(C)(C)C)[C@@H](C(=O)O)N(C(=O)OC(C)C)[C@H]1c1cccnc1OC [II-512]
,,,,1000 to 10000,1000 to 10000,+++ (≥350),< 100,,,COc1ccc(C(F)(F)F)cc1CN[C@H]1[C@H](C(C)(C)C)[C@@H](C(=O)O)N(C(=O)[C@@H]2OCC[C@@H]2C(C)C)[C@H]1c1ccccc1 (relative stereo) [Example I-105]
,,,,1000 to 10000,1000 to 10000,,,100 to 200,+++ (≥350),COc1ncc(C(F)(F)F)cc1CN[C@H]1[C@H](C(C)(C)C)[C@@H](C(=O)O)N(C(=O)C2CCC(C)(C)O2)[C@H]1c1ccccc1 (stereo partly shown) [II-434]
1000 to 10000,1000 to 10000,++ (≥150 and <350),< 100,,,,,,,CC(C)OC(=O)N1[C@H](C(=O)O)[C@@H](C(C)(C)C)[C@H](NCCc2ccccc2)[C@@H]1c1ccccc1 [Example I-263]

EC50 [1] [nM],EC50 [2] [nM],Maximum % activity (with co-corrector) [3],"Emax (CSE-HRP, without co-corrector) [%]",EC50 [4] [nM],EC50 [5] [nM],Maximum % activity (with co-corrector) (with co-corrector (2 μM)),Emax (without co-corrector) [%],Emax [6] [%],Maximum % activity (with co-corrector) [7],SMILES
1000 to 10000,1000 to 10000,+++ (≥350),> 200,,,,,,,COc1ccc(C(C)(C)C)cc1CN[C@H]1[C@H](C(C)(C)C)[C@@H](C(=O)O)N(C(=O)C2CCC(OC)CC2)[C@H]1c1ccccc1 (stereo partly shown) [II-214]
1000 to 10000,1000 to 10000,+++ (≥350),100 to 200,,,,,,,COc1ccc(C(C)(C)C)cc1CN[C@H]1[C@H](C(C)(C)C)[C@@H](C(=O)O)N(C(=O)Cc2cccnc2)[C@H]1c1ccccc1 [II-184]
1000 to 10000,1000 to 10000,+++ (≥350),100 to 200,,,,,,,COc1ccc(Cl)cc1CN[C@@H]1[C@@H](C2CC2)[C@H](C(=O)O)N(C(=O)C2CCCCC2)[C@@H]1c1ccccc1 (racemic) [II-12]
< 1000,< 1000,+++ (≥350),> 200,,,,,,,COc1ccc(C(C)(C)C)cc1CN[C@H]1[C@H](C(C)(C)C)[C@@H](C(=O)O)N(C(=O)C2CCCC(C(F)(F)F)C2)[C@H]1c1ccccc1 (stereo partly shown) [II-186]
,,,,1000 to 10000,1000 to 10000,,,100 to 200,+++ (≥350),COc1nc(C(C)(C)C)ccc1CN[C@H]1[C@H](C(C)(C)C)[C@@H](C(=O)O)N(C(=O)C2CCCCC2)[C@H]1c1ccccc1OC(F)F [II-528]
,,,,> 10000,> 10000,,,< 100,+ (<150),COc1cc(-c2ccccc2)ccc1CN[C@@H]1[C@@H](C(C)(C)C)[C@H](C(=O)O)N(C(=O)OC(C)C)[C@@H]1c1ccccc1 (racemic) [III-92]
1000 to 10000,1000 to 10000,+++ (≥350),> 200,,,,,,,COc1ccc(C(C)(C)C)cc1CN[C@@H]1[C@@H](C(C)(C)C)[C@H](C(=O)O)N(C(=O)OC(C)C)[C@@H]1c1ccccc1 (racemic) [II-43]
,,,,> 10000,1000 to 10000,+ (<150),,< 100,,CO[C@H](C(=O)N1[C@H](C(=O)O)[C@@H](C(C)(C)C)[C@H](Nc2cc(C(F)(F)F)cc(C)n2)[C@@H]1c1ccccc1)c1ccccc1 [III-103]
1000 to 10000,< 1000,+++ (≥350),> 200,,,,,,,COc1ccc(C(C)(C)C)cc1CN[C@H]1[C@H](C(C)(C)C)[C@@H](C(=O)O)N(C(=O)Cc2cccs2)[C@H]1c1ccccc1 [II-182]
1000 to 10000,1000 to 10000,+++ (≥350),100 to 200,,,,,,,COc1ccc(C(C)(C)C)cc1CN[C@H]1[C@H](C(C)(C)C)[C@@H](C(=O)O)N(C(=O)C(OC)C(C)(C)C)[C@H]1c1ccccc1 (stereo partly shown) [II-298]
,,,,1000 to 10000,1000 to 10000,,,100 to 200,+++ (≥350),COc1ccc(C(C)(C)C)cc1CN[C@H]1[C@H](C(C)(C)C)[C@@H](C(=O)O)N(C(=O)C2(C)CCc3ccccc32)[C@H]1c1ccccc1 (stereo partly shown) [II-368]
,,,,1000 to 10000,1000 to 10000,,,100 to 200,+++ (≥350),COc1ncc(N2CCCC2)cc1CN[C@H]1[C@H](C(C)(C)C)[C@@H](C(=O)O)N(C(=O)OC(C)C)[C@H]1c1cccnc1N(C)C [II-577]
< 1000,< 1000,+++ (≥350),100 to 200,,,,,,,COc1ccc(C(C)(C)C)cc1CN[C@H]1[C@H](C(C)(C)C)[C@@H](C(=O)O)N(C(=O)C(C)Oc2ccccc2Cl)[C@H]1c1ccccc1 (stereo partly shown) [II-312]
< 1000,< 1000,+++ (≥350),100 to 200,,,,,,,COc1ncc(Br)cc1CN[C@H]1[C@H](C(C)(C)C)[C@@H](C(=O)O)N(C(=O)C2CCCCC2)[C@H]1c1ccccc1 [II-158]
1000 to 10000,1000 to 10000,+++ (≥350),100 to 200,,,,,,,COc1ccc(C(C)(C)C)cc1CN[C@H]1[C@H](C(C)(C)C)[C@@H](C(=O)O)N(C(=O)c2ccc3c(c2)OCCCO3)[C@H]1c1ccccc1 [II-230]

# From patent US20180099931A1 (AbbVie S.à.r.l., priority 2016, published 2018)
